For nine cell lines, relative viability results are on record in the supplement of paper PMC10307832.

Holding throughout (test): relative viability (nuclei count vs DMSO), 5 days (fraction); higher = more cells survive
Compound in the test “Etoposide + Pemetrexed”: COc1cc([C@@H]2c3cc4c(cc3[C@@H](O[C@@H]3O[C@@H]5CO[C@@H](C)O[C@H]5[C@H](O)[C@H]3O)[C@H]3COC(=O)[C@H]23)OCO4)cc(OC)c1O [Etoposide] + Nc1nc2[nH]cc(CCc3ccc(C(=O)N[C@@H](CCC(=O)O)C(=O)O)cc3)c2c(=O)[nH]1 [Pemetrexed] (partner 0.2 µM)
The method, boiled down: (§1)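 Medians of duplicate plates are given as relative viability. That measure is the nuclei count in treated wells divided by the count in vehicle wells. Counts were taken on 4× images of lung cancer cell lines in 1536-well plates, 5 days after pin-tool dosing the day after seeding with one drug alone or a fixed anchor-drug dose plus five library-drug doses (not always all listed) in √10 steps.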

Compound in another test: CC1=C(N=C(N=C1N)[C@H](CC(=O)N)NC[C@@H](C(=O)N)N)C(=O)N[C@@H]([C@H](C2=CN=CN2)OC3C(C(C(C(O3)CO)O)O)OC4C(C(C(C(O4)CO)O)OC(=O)N)O)C(=O)N[C@H](C)[C@H]([C@H](C)C(=O)N[C@@H]([C@@H](C)O)C(=O)NCCC5=NC(=CS5)C6=NC(=CS6)C(=O)NCCC[S+](C)C)O [Bleomycin]
The following applies: main component drawn. The procedure, abridged: (§2)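 Viability was read as treated-well nuclei divided by vehicle-well nuclei, using the median across plates. Lung cancer cell lines in 1536-well plates were kept overnight at 37 °C, pinned with five √10-spaced library-drug doses, and after 5 days were Hoechst-stained, imaged at 4× and counted in MetaXpress. Plates passed only with control CV below 25% and at least one doubling.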

Compound in a further test: COc1cc([C@@H]2c3cc4c(cc3[C@@H](O[C@@H]3O[C@@H]5CO[C@@H](C)O[C@H]5[C@H](O)[C@H]3O)[C@H]3COC(=O)[C@H]23)OCO4)cc(OC)c1O [Etoposide]
The procedure, abridged: as §2

Compound in the test “Bleomycin + Alpelisib”: CC1=C(N=C(N=C1N)[C@H](CC(=O)N)NC[C@@H](C(=O)N)N)C(=O)N[C@@H]([C@H](C2=CN=CN2)OC3C(C(C(C(O3)CO)O)O)OC4C(C(C(C(O4)CO)O)OC(=O)N)O)C(=O)N[C@H](C)[C@H]([C@H](C)C(=O)N[C@@H]([C@@H](C)O)C(=O)NCCC5=NC(=CS5)C6=NC(=CS6)C(=O)NCCC[S+](C)C)O [Bleomycin] + Cc1nc(NC(=O)N2CCC[C@H]2C(N)=O)sc1-c1ccnc(C(C)(C)C(F)(F)F)c1 [Alpelisib] (partner 2 µM)
The conditions noted are these: main component drawn. The method, boiled down: as §1

SW 900: the relative viability in the test with Etoposide + Pemetrexed (first compound 0.01 µM) came to 0.419; with Etoposide + Pemetrexed (first compound 0.03162 µM), 0.543; with Etoposide + Pemetrexed (first compound 0.1 µM), 0.522; in the test with Etoposide + Pemetrexed (first compound 0.3162 µM) it was 0.47; with Etoposide + Pemetrexed (first compound 1 µM), 0.204; with Bleomycin (0.01 µM) it was 0.697. The relative viability came out at 0.816 with Bleomycin (0.03162 µM); 0.6 with Bleomycin (0.1 µM); 0.21 with Bleomycin (0.3162 µM); 0.205 with Bleomycin (1 µM); 0.778 in the test with Etoposide (0.01 µM); 0.809 with Etoposide (0.03162 µM). Besides, the relative viability was determined as 0.729 in the test with Etoposide (0.1 µM), 0.524 with Etoposide (0.3162 µM) and 0.224 with Etoposide (1 µM).

Turning to NCI-H1299, the relative viability turned out to be 0.978 with Bleomycin + Alpelisib (first compound 0.01 µM); 1.03 in the test with Bleomycin + Alpelisib (first compound 0.03162 µM); 0.923 with Bleomycin + Alpelisib (first compound 0.1 µM); 0.529 in the test with Bleomycin + Alpelisib (first compound 0.3162 µM); 0.416 with Bleomycin + Alpelisib (first compound 1 µM); 0.937 in the test with Bleomycin (0.01 µM). Besides, the relative viability is 1.03 in the test with Bleomycin (0.03162 µM); 0.936 in the test with Bleomycin (0.1 µM); 0.601 with Bleomycin (0.3162 µM); 0.287 with Bleomycin (1 µM); 1.01 in the test with Etoposide (0.01 µM); 0.995 with Etoposide (0.03162 µM). Further, the values for the relative viability with Etoposide (0.1 µM), with Etoposide (0.3162 µM) and with Etoposide (1 µM) were 1.07, 0.932 and 0.779, respectively.

For NCI-H727, the relative viability was determined as 0.499 with Bleomycin + Alpelisib (first compound 0.01 µM); 0.529 with Bleomycin + Alpelisib (first compound 0.03162 µM); 0.491 with Bleomycin + Alpelisib (first compound 0.1 µM); 0.293 with Bleomycin + Alpelisib (first compound 0.3162 µM); 0.308 with Bleomycin + Alpelisib (first compound 1 µM); 0.891 with Bleomycin (0.01 µM). Also, the relative viability with Bleomycin (0.03162 µM) is 0.777; with Bleomycin (0.1 µM) it was 0.831; with Bleomycin (0.3162 µM) it was 0.391; with Bleomycin (1 µM) it was 0.687; with Etoposide (0.01 µM) it was 0.945; in the test with Etoposide (0.03162 µM), 1.04. Besides, the relative viability with Etoposide (0.1 µM) was 0.586; with Etoposide (0.3162 µM) it was 0.87; in the test with Etoposide (1 µM), 0.852.

Turning to NCI-H522, the relative viability with Etoposide + Pemetrexed (first compound 0.01 µM) was found to be 0.896; in the test with Etoposide + Pemetrexed (first compound 0.03162 µM) it was 1.22; with Etoposide + Pemetrexed (first compound 0.1 µM) it was 0.784; with Etoposide + Pemetrexed (first compound 0.3162 µM) it was 0.877; in the test with Etoposide + Pemetrexed (first compound 1 µM), 1; with Bleomycin (0.01 µM) it was 0.833. Also, the relative viability in the test with Bleomycin (0.03162 µM) was 0.79; with Bleomycin (0.1 µM), 0.666; with Bleomycin (0.3162 µM), 0.432; with Bleomycin (1 µM), 0.345; in the test with Etoposide (0.01 µM), 0.977; in the test with Etoposide (0.03162 µM) it was 1.04. In addition, the relative viability in the test with Etoposide (0.1 µM) was determined as 0.811; with Etoposide (0.3162 µM) it was 0.928; with Etoposide (1 µM), 0.743.

As to A549, the relative viability with Bleomycin + Alpelisib (first compound 0.01 µM) was 0.593; in the test with Bleomycin + Alpelisib (first compound 0.03162 µM), 0.44; with Bleomycin + Alpelisib (first compound 0.1 µM), 0.314; with Bleomycin + Alpelisib (first compound 0.3162 µM) it was 0.0966; in the test with Bleomycin + Alpelisib (first compound 1 µM), 0.0714; in the test with Bleomycin (0.01 µM) it was 0.843. For the same cell line, the relative viability with Bleomycin (0.03162 µM) was 0.789; with Bleomycin (0.1 µM), 0.608; with Bleomycin (0.3162 µM), 0.132; in the test with Bleomycin (1 µM), 0.0828; with Etoposide (0.01 µM), 0.875; with Etoposide (0.03162 µM), 0.947. The relative viability was determined as 0.476 in the test with Etoposide (0.1 µM), 0.281 in the test with Etoposide (0.3162 µM) and 0.131 with Etoposide (1 µM).

In the case of NCI-H1648, the relative viability in the test with Etoposide + Pemetrexed (first compound 0.03162 µM) was determined as 0.859; in the test with Etoposide + Pemetrexed (first compound 0.1 µM), 0.732; with Etoposide + Pemetrexed (first compound 0.3162 µM), 0.798; with Etoposide + Pemetrexed (first compound 1 µM), 0.581; in the test with Bleomycin (0.01 µM), 0.71; in the test with Bleomycin (0.03162 µM), 0.696. Further, the relative viability in the test with Bleomycin (0.1 µM) was 0.773; with Bleomycin (0.3162 µM) it was 0.608; with Bleomycin (1 µM), 0.68; with Etoposide (0.03162 µM) it was 1.01; with Etoposide (0.1 µM), 0.783; with Etoposide (0.3162 µM), 0.674. In the test with Etoposide (1 µM), the relative viability is 0.516.

IA-LM: the relative viability with Bleomycin + Alpelisib (first compound 0.01 µM) came to 0.514; with Bleomycin + Alpelisib (first compound 0.03162 µM) it was 0.614; in the test with Bleomycin + Alpelisib (first compound 0.1 µM), 0.565; with Bleomycin + Alpelisib (first compound 0.3162 µM), 0.372; with Bleomycin + Alpelisib (first compound 1 µM), 0.246; in the test with Bleomycin (0.01 µM) it was 0.873. The relative viability with Bleomycin (0.03162 µM) was 0.852; in the test with Bleomycin (0.1 µM) it was 0.839; with Bleomycin (0.3162 µM), 0.347; with Bleomycin (1 µM) it was 0.356; with Etoposide (0.01 µM), 0.88; with Etoposide (0.03162 µM), 0.946. Moreover, the relative viability came to 0.742 in the test with Etoposide (0.1 µM), 0.875 in the test with Etoposide (0.3162 µM) and 0.655 in the test with Etoposide (1 µM).

For ChaGo-K-1, the relative viability came to 0.267 in the test with Etoposide + Pemetrexed (first compound 0.01 µM); 0.261 with Etoposide + Pemetrexed (first compound 0.03162 µM); 0.259 with Etoposide + Pemetrexed (first compound 0.1 µM); 0.261 with Etoposide + Pemetrexed (first compound 0.3162 µM); 0.218 with Etoposide + Pemetrexed (first compound 1 µM); 0.832 in the test with Bleomycin (0.01 µM). The relative viability in the test with Bleomycin (0.03162 µM) stood at 0.895; in the test with Bleomycin (0.1 µM), 0.846; in the test with Bleomycin (0.3162 µM), 0.58; in the test with Bleomycin (1 µM), 0.387; with Etoposide (0.01 µM), 1.04; in the test with Etoposide (0.03162 µM) it was 1.06. In addition, the relative viability with Etoposide (0.1 µM) is 0.858; with Etoposide (0.3162 µM) it was 0.481; with Etoposide (1 µM) it was 0.308.

For the cell line ABC-1, the relative viability with Bleomycin + Alpelisib (first compound 0.01 µM) is 0.883; with Bleomycin + Alpelisib (first compound 0.03162 µM), 1.03; with Bleomycin + Alpelisib (first compound 0.1 µM) it was 0.615; with Bleomycin + Alpelisib (first compound 0.3162 µM), 0.425; in the test with Bleomycin + Alpelisib (first compound 1 µM), 0.298; in the test with Bleomycin (0.01 µM) it was 0.741. In addition, the relative viability with Bleomycin (0.03162 µM) worked out at 0.942; in the test with Bleomycin (0.1 µM), 0.891; with Bleomycin (0.3162 µM), 0.383; with Bleomycin (1 µM), 0.29; with Etoposide (0.01 µM), 1.08; with Etoposide (0.03162 µM) it was 0.954. Moreover, the relative viability came to 0.697 with Etoposide (0.1 µM), 0.41 with Etoposide (0.3162 µM) and 0.273 in the test with Etoposide (1 µM).
